Among the data in patent publication US10471046B2, “Method for treating, preventing, or reducing the risk of skin infection” (Melinta Subsidiary Corp., priority 2014, dated 2019) are MIC values, retold here.

Converted amounts (≈) assume the structure as drawn.

The assay deals with S. aureus. Description: Minimum inhibitory concentrations (MICs) for S. aureus of exemplary compounds (Table 2). It is filed as cell-based. As to conditions: Staphylococcus aureus, minimum inhibitory concentrations for S. aureus; read-out: MICs. The method in brief:
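MICs (μg/mL) against S. aureus come from microtiter-tray dilution susceptibility testing per NCCLS M7-A5, comparing growth with and without compound.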
Regarding `CC(=O)NC[C@H]1CN(c2ccc(-c3ccc(CNCc4cccnc4)cc3)c(F)c2)C(=O)O1` [Compound 4025, N-[3-(2-Fluoro-4′-{[(pyridin-3-ylmethyl)-amino]-methyl}-biphenyl-4-yl)-2-oxo-oxazolidin-5-(S)-ylmethyl]-acetamide], the MIC was found to be 1 µg/mL (≈ 2.23 µM).

Consider `CC(=O)NC[C@H]1CN(c2ccc(-c3ccc(CNCc4ccco4)cc3)c(F)c2)C(=O)O1` [Compound 4026, N-[3-(2-Fluoro-4′-{[(furan-2-ylmethyl)-amino]-methyl}-biphenyl-4-yl)-2-oxo-oxazolidin-5-(S)-ylmethyl]-acetamide], for which the MIC was 1 µg/mL (≈ 2.29 µM).

In the case of `COc1cc(CNCc2ccncc2)ccc1-c1ccc(N2C[C@H](CNC(C)=O)OC2=O)cc1F` [Compound 4027, N-[3-(2-Fluoro-2′-methoxy-4′-{[(pyridin-4-ylmethyl)-amino]-methyl}-biphenyl-4-yl)-2-oxo-oxazolidin-5-(S)-ylmethyl]-acetamide], the MIC was found to be 8 µg/mL (≈ 16.7 µM). As for `COc1cc(CNCc2ccoc2)ccc1-c1ccc(N2C[C@H](CNC(C)=O)OC2=O)cc1F` [Compound 4028, N-[3-(2-Fluoro-4′-{[(furan-3-ylmethyl)-amino]-methyl}-2′-methoxy-biphenyl-4-yl)-2-oxo-oxazolidin-5-(S)-ylmethyl]-acetamide], the figure is 8 µg/mL (≈ 17.1 µM); as for `CC(=O)NC[C@H]1CN(c2ccc(-c3ccc([C@H](CO)NCc4ccncc4)cc3)c(F)c2)C(=O)O1` [Compound 4029, N-[3-(2-Fluoro-4′-{2-hydroxy-1-(R)-[(pyridin-4-ylmethyl)-amino]-ethyl}-biphenyl-4-yl)-2-oxo-oxazolidin-5-(S)-ylmethyl]-acetamide], 4 µg/mL (≈ 8.36 µM). As for `CC(=O)NC[C@H]1CN(c2ccc(-c3ccc([C@H](CO)NCc4c(C)nc(O)nc4O)cc3)c(F)c2)C(=O)O1` [Compound 4030, N-[3-(4′-{1-(R)-[(2,4-Dihydroxy-6-methyl-pyrimidin-5-ylmethyl)-amino]-2-hydroxy-ethyl}-2-fluoro-biphenyl-4-yl)-2-oxo-oxazolidin-5-(S)-ylmethyl]-acetamide], the figure is 64 µg/mL (≈ 122 µM).

With `CC(=O)NC[C@H]1CN(c2ccc(-c3ccc([C@H](CO)NCc4ccnc5ccccc45)cc3)c(F)c2)C(=O)O1` [Compound 4031, N-[3-(2-Fluoro-4′-{2-hydroxy-1-(R)-[(quinolin-4-ylmethyl)-amino]-ethyl}-biphenyl-4-yl)-2-oxo-oxazolidin-5-(S)-ylmethyl]-acetamide], the MIC amounted to 2 µg/mL (≈ 3.78 µM). As for `CC(=O)NC[C@H]1CN(c2ccc(-c3ccc(CN(C)Cc4ccnc5ccccc45)cc3)c(F)c2)C(=O)O1` [Compound 4032, N-(3-{2-Fluoro-4′-[(methyl-quinolin-4-ylmethyl-amino)-methyl]-biphenyl-4-yl}-2-oxo-oxazolidin-5-(S)-ylmethyl)-acetamide], the figure is 1 µg/mL (≈ 1.95 µM). For `COc1cc(CN(C)Cc2ccncc2)ccc1-c1ccc(N2C[C@H](CNC(C)=O)OC2=O)cc1F` [Compound 4033, N-(3-{2-Fluoro-2′-methoxy-4′-[(methyl-pyridm-4-ylmethyl-amino)-methyl]-biphenyl-4-yl}-2-oxo-oxazolidin-5-(S)-ylmethyl)-acetamide], the MIC amounted to 8 µg/mL (≈ 16.2 µM). As for `COc1cc(CN(C)Cc2ccoc2)ccc1-c1ccc(N2C[C@H](CNC(C)=O)OC2=O)cc1F` [Compound 4034, N-(3-{2-Fluoro-4′-[(furan-3-ylmethyl-methyl-amino)-methyl]-2′-methoxy-biphenyl-4-yl}-2-oxo-oxazolidin-5-(S)-ylmethyl)-acetamide], the figure is 32 µg/mL (≈ 66.5 µM); as for `CCN(Cc1ccncc1)Cc1ccc(-c2ccc(N3C[C@H](CNC(C)=O)OC3=O)cc2F)cc1` [Compound 4035, N-(3-{4′-[(Ethyl-pyridin-4-ylmethyl-amino)-methyl]-2-fluoro-biphenyl-4-yl}-2-oxo-oxazolidin-5-(S)-ylmethyl)-acetamide], 2 µg/mL (≈ 4.2 µM); as for `CC(=O)NC[C@H]1CN(c2ccc(-c3ccc(CN(C)Cc4c(C)nc(O)nc4O)cc3)c(F)c2)C(=O)O1` [Compound 4036, N-[3-(4′-{[(2,4-Dihydroxy-6-methyl-pyrimidin-5-ylmethyl)-methyl-amino]-methyl}-2-fluoro-biphenyl-4-yl)-2-oxo-oxazolidin-5-(S)-ylmethyl]-acetamide], 4 µg/mL (≈ 7.85 µM).

On to `COc1cc(CN(Cc2ccc(-c3ccc(N4C[C@H](CNC(C)=O)OC4=O)cc3F)cc2)Cc2ccc(O)c(OC)c2)ccc1O` [Compound 4037, N-[3-(4′-{[Bis-(4-hydroxy-3-methoxy-benzyl)-amino]-methyl}-2-fluoro-biphenyl-4-yl)-2-oxo-oxazolidin-5-(S)-ylmethyl]-acetamide], for which the MIC is 2 µg/mL (≈ 3.18 µM). As for `CC(=O)NC[C@H]1CN(c2ccc(-c3ccc(CNCc4cnoc4)cc3)c(F)c2)C(=O)O1` [Compound 4038, N-[3-(2-Fluoro-4′-{[(isoxazol-4-ylmethyl)-amino]-methyl}-biphenyl-4-yl)-2-oxo-oxazolidin-5-(S)-ylmethyl]-acetamide], the figure is 0.25 µg/mL (≈ 0.57 µM); as for `CC(=O)NC[C@H]1CN(c2ccc(-c3ccc(CN(C)Cc4ccncc4)cc3)c(F)c2)C(=O)O1` [Compound 4044, N-(3-{2-Fluoro-4′-[(methyl-pyridin-4-ylmethyl-amino)-methyl]-biphenyl-4-yl}-2-oxo-oxazolidin-5-(S)-ylmethyl)-acetamide], 1 µg/mL (≈ 2.16 µM); as for `CC(=O)NC[C@H]1CN(c2ccc(-c3ccc(CN(C)Cc4ccccn4)cc3)c(F)c2)C(=O)O1` [Compound 4045, N-(3-{2-Fluoro-4′-[(methyl-pyridin-2-ylmethyl-amino)-methyl]-biphenyl-4-yl}-2-oxo-oxazolidin-5-(S)-ylmethyl)-acetamide], 2 µg/mL (≈ 4.32 µM).

As to `CC(=O)NC[C@H]1CN(c2ccc(-c3ccc(CN(C)Cc4cc(Cl)cc(Cl)c4)cc3)c(F)c2)C(=O)O1` [Compound 4046, N-[3-(4′-{[(3,5-Dichloro-benzyl)-methyl-amino]-methyl}-2-fluoro-biphenyl-4-yl)-2-oxo-oxazolidin-5-(S)-ylmethyl]-acetamide], the MIC amounted to 4 µg/mL (≈ 7.54 µM). As for `CC(=O)NC[C@H]1CN(c2ccc(-c3ccc(CN(C)Cc4cccnc4)cc3)c(F)c2)C(=O)O1` [Compound 4047, N-(3-{2-Fluoro-4′-[(methyl-pyridin-3-ylmethyl-amino)-methyl]-biphenyl-4-yl}-2-oxo-oxazolidin-5-(S)-ylmethyl)-acetamide], the figure is 2 µg/mL (≈ 4.32 µM); as for `CC(=O)NC[C@H]1CN(c2ccc(-c3ccc(CNCc4ccc[nH]4)cc3)c(F)c2)C(=O)O1` [Compound 4048, N-[3-(2-Fluoro-4′-{[(1H-pyrrol-2-ylmethyl)-amino]-methyl}-biphenyl-4-yl)-2-oxo-oxazolidin-5-(S)-ylmethyl]-acetamide], 2 µg/mL (≈ 4.58 µM); as for `CC(=O)NC[C@H]1CN(c2ccc(-c3ccc(CNCc4cc5ccccc5n4C)cc3)c(F)c2)C(=O)O1` [Compound 4049, N-[3-(2-Fluoro-4′-{[(1-methyl-1H-indol-2-ylmethyl)-amino]-methyl}-biphenyl-4-yl)-2-oxo-oxazolidin-5-(S)-ylmethyl]-acetamide], 1 µg/mL (≈ 2 µM). As for `CC(=O)NC[C@H]1CN(c2ccc(-c3ccc(CN(C)C(=O)c4ccc5cc[nH]c5c4)cc3)c(F)c2)C(=O)O1` [Compound 4050, 1H-Indole-6-carboxylic acid {4′-[5-(S)-(acetylamino-methyl)-2-oxo-oxazolidin-3-yl]-2′-fluoro-biphenyl-4-ylmethyl}-methyl-amide], the figure is 1 µg/mL (≈ 1.94 µM).

In the case of `CC(=O)NC[C@H]1CN(c2ccc(-c3ccc(CN(C)C(=O)c4cccn4C)cc3)c(F)c2)C(=O)O1` [Compound 4051, 1-Methyl-1H-pyrrole-2-carboxylic acid {4′-[5-(S)-(acetylamino-methyl)-2-oxo-oxazolidin-3-yl]-2′-fluoro-biphenyl-4-ylmethyl}-methyl-amide], the MIC came out at 4 µg/mL (≈ 8.36 µM). As for `CC(=O)NC[C@H]1CN(c2ccc(-c3ccc(CNCc4ccncc4)cn3)c(F)c2)C(=O)O1` [Compound 4052, N-{3-[3-Fluoro-4-(5-{[(pyridin-4-ylmethyl)-amino]-methyl}-pyridin-2-yl)-phenyl]-2-oxo-oxazolidin-5-(S)-ylmethyl}-acetamide], the figure is 64 µg/mL (≈ 142 µM); as for `CC(=O)NC[C@H]1CN(c2ccc(-c3ccc(CNCc4ccoc4)cn3)c(F)c2)C(=O)O1` [Compound 4053, N-{3-[3-Fluoro-4-(5-{[(furan-3-ylmethyl)-amino]-methyl}-pyridin-2-yl)-phenyl]-2-oxo-oxazolidin-5-(S)-ylmethyl}-acetamide], 4 µg/mL (≈ 9.12 µM); as for `COc1ccc(CNCc2ccc(-c3ccc(N4C[C@H](CNC(C)=O)OC4=O)cc3F)cc2)cn1` [Compound 4054, N-[3-(2-Fluoro-4′-{[(6-methoxy-pyridin-3-ylmethyl)-amino]-methyl}-biphenyl-4-yl)-2-oxo-oxazolidin-5-(S)-ylmethyl]-acetamide], 1 µg/mL (≈ 2.09 µM). Consider `COc1ccc(CN(C)Cc2ccc(-c3ccc(N4C[C@H](CNC(C)=O)OC4=O)cc3F)cc2)cn1` [Compound 4055, N-[3-(2-Fluoro-4′-{[(6-methoxy-pyridin-3-ylmethyl)-methyl-amino]-methyl}-biphenyl-4-yl)-2-oxo-oxazolidin-5-(S)-ylmethyl]-acetamide], for which the MIC worked out at 2 µg/mL (≈ 4.06 µM).

As to `CC(=O)NC[C@H]1CN(c2ccc(-c3ccc(CNCc4c(C)[nH]c(=O)[nH]c4=O)cc3)c(F)c2)C(=O)O1` [Compound 4057, N-[3-(2-Fluoro-4′-{[(6-methyl-2,4-dioxo-1,2,3,4-tetrahydro-pyrimidin-5-ylmethyl)-amino]-methyl}-biphenyl-4-yl)-2-oxo-oxazolidin-5-(S)-ylmethyl]-acetamide], the MIC amounted to 16 µg/mL (≈ 32.3 µM). Take `CC(=O)NC[C@H]1CN(c2ccc(-c3ccc(CNCc4cccn4C)cc3)c(F)c2)C(=O)O1` [Compound 4059, N-[3-(2-Fluoro-4′-{[(1-methyl-1H-pyrrol-2-ylmethyl)-amino]-methyl}-biphenyl-4-yl)-2-oxo-oxazolidin-5-(S)-ylmethyl]-acetamide]: the MIC was found to be 2 µg/mL (≈ 4.44 µM).

As for `CC(=O)NC[C@H]1CN(c2ccc(-c3ccc(CNCc4cncc5ccccc45)cc3)c(F)c2)C(=O)O1` [Compound 4060, N-[3-(2-Fluoro-4′-{[(isoquinolin-4-ylmethyl)-amino]-methyl}-biphenyl-4-yl)-2-oxo-oxazolidin-5-(S)-ylmethyl]-acetamide], the MIC came out at 2 µg/mL (≈ 4.01 µM).
